Results taken from patent publication US8309685B2 (Celgene Avilomics Research, Inc., priority 2007, dated 2012).
Where two headings read alike, the source gives them in different places.

How the values were obtained:
[1] = system: HCV RNA replicon in cell line ET (luc-ubi-neo/ET), human Huh7 hepatoma; assay: Method A: HCV RNA replicon antiviral assay (luciferase, ET cell line); type: cell-based, Hepatitis C virus; settings: Hepatitis C virus, Huh-7
Procedure, shortened: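 ET replicon cells (Huh7 carrying luciferase-reporter HCV replicon) plated at 5×10^3 cells/well and exposed 72 hr to six 3-fold drug concentrations in DMEM/5% FBS. Replicon luciferase gave EC50/EC90; CytoTox-1 cell counts gave IC50 (viability); […]. Interferon alpha-2b served as positive control.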

[2] = biological target: T1, wild type HCV NS3/4A 1b protease enzyme (Hepatitis C virus genotype 1b, UniProt P26663); assay: biochemical; type: biochemical; settings: read-out: Inhibition, WT; WT enzyme, FRET assay
T1 construct: 10× stocks of NS3/4A protease enzyme from Bioenza (Mountain View, Calif.); purchased Bioenza (Mountain View, Calif.)

[3] = system: cell line ET (luc-ubi-neo/ET), human Huh7 hepatoma cell line; assay: Method A: cytotoxicity in ET replicon cells (CytoTox-1); type: cell-based; settings: concentration decreasing cell viability by 50%, 72 hr
Procedure, shortened: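 ET cells (Huh7 carrying luciferase HCV replicon), 5×10^3 cells/well, given six 3-fold compound concentrations in DMEM with 5% FBS. After 72 hr, while subconfluent, cell number was measured with CytoTox-1 reagent. Interferon alpha-2b served as positive control.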

[4] = biological target: T1, wild type HCV NS3/4A 1b protease enzyme; assay: HCV Protease FRET Assay (IC50_APP), wild type; type: biochemical; settings: read-out: IC50_APP, WT; apparent IC50, wild type NS3/4A 1b
[5] = biological target: T2, D168A mutant of the HCV NS3/4A 1b protease enzyme (Hepatitis C virus genotype 1b, UniProt P26663, D1194A); assay: HCV Protease FRET Assay (IC50_APP), D168A mutant; type: biochemical
T2 construct: 10× stocks of NS3/4A protease enzyme from Bioenza (Mountain View, Calif.); purchased Bioenza (Mountain View, Calif.)

[6] = biological target: T3, A156T mutant of the HCV NS3/4A 1b protease enzyme (Hepatitis C virus genotype 1b, UniProt P26663, A1182T); assay: HCV Protease FRET Assay (IC50_APP), A156T mutant; type: biochemical
T3 construct: 10× stocks of NS3/4A protease enzyme from Bioenza (Mountain View, Calif.); purchased Bioenza (Mountain View, Calif.)

[7] = biological target: T2, D168A mutant of the HCV NS3/4A 1b protease enzyme; assay: HCV Protease FRET Assay (IC50), D168A mutant; type: biochemical
[8] = Replicon, assay of Example 22, 72 hr, read-out: Inhibition, Replicon
[9] = assay described in Example 22, read-out: Replicon (IC50)
[10] = apparent IC50, D168A mutant; read-out: IC50_APP, HCV D168A
[11] = apparent IC50, A156T mutant; read-out: IC50_APP, HCV A156T
[12] = read-out: Inhibition, HCV D168A, D168A enzyme, FRET assay

Row | SMILES | IC50 [1, 8] [nM] | IC50 ([1]; WT, cell-based assay, methods of the Examples, read-out: Comparative IC50 Values, WT) [nM] | IC50 [1, 9] [nM] | IC50 [2] [nM] | Inhibition, Cytotoxicity [3] | IC50 [4] [nM] | IC50 [5, 10] [nM] | IC50 [6, 11] [nM] | IC50 ([7]; read-out: Comparative IC50 Values, D168A, biochemical assay) [nM] | IC50 [7, 12] [nM] | IC90 ([1]; assay described in Example 22) [nM] | IC50 ([5]; read-out: IC50_APP, HCV D168A; apparent IC50, D168A mutant) [nM] | IC50 ([6]; read-out: IC50_APP, HCV A156T; apparent IC50, A156T mutant) [nM]
1 | C=CC(=O)NC[C@H](NC(=O)OC(C)(C)C)C(=O)N1C[C@H](Oc2cc(-c3ccccc3)nc3cc(OC)ccc23)C[C@H]1C(=O)N[C@]1(C(=O)NS(=O)(=O)c2ccccc2)C[C@H]1C=C [Compound I-3, N-[(1,1-dimethylethoxy)carbonyl]-3-[(2-propenoyl)amino]-L-alanyl-(4R)-4-[(7-methoxy-2-phenyl-4-quinolinyl)oxy]-L-prolyl-1-amino-2-ethenyl-N-(phenylsulfonyl)-(1R,2S)-cyclopropanecarboxamide] | 10 to 100 | 20 | 10 to 100 | < 10 | E (IC50≧10,000 nM) | < 10 | 1000 to 10000 | 1000 to 10000 | 45 | 10 to 100 |  |  | 
2 | C=C[C@@H]1C[C@]1(NC(=O)[C@@H]1C[C@@H](Oc2cc(-c3ccccc3)nc3cc(OC)ccc23)CN1C(=O)[C@H](CNC(=O)CCl)NC(=O)OC(C)(C)C)C(=O)NS(=O)(=O)c1ccccc1 [Compound I-7, N-[(1,1-dimethylethoxy)carbonyl]-3-[(chloroacetyl)amino]-L-alanyl-(4R)-4-[(7-methoxy-2-phenyl-4-quinolinyl)oxy]-L-prolyl-1-amino-2-ethenyl-N-(phenylsulfonyl)-(1R,2S)-cyclopropanecarboxamide] | 10 to 100 |  | 10 to 100 | < 10 | E (IC50≧10,000 nM) | < 10 |  |  |  | 10 to 100 | 100 to 1000 | 100 to 1000 | 100 to 1000
3 | C=CC(=O)NCC(=O)N1C[C@H](Oc2cc(-c3ccccc3)nc3cc(OC)ccc23)C[C@H]1C(=O)N[C@]1(C(=O)NS(=O)(=O)c2ccccc2)C[C@H]1C=C [Compound I-27, (2S,4R)-1-(2-acrylamidoacetyl)-4-(7-methoxy-2-phenylquinolin-4-yloxy)-N-((1R,2S)-1-(phenylsulfonylcarbamoyl)-2-vinylcyclopropyl)pyrrolidine-2-carboxamide] | 10 to 100 |  | 100 to 1000 | < 10 | D (IC50>1000 nM and <10,000 nM) | < 10 | 100 to 1000 | 100 to 1000 |  | 10 to 100 | 100 to 1000 |  | 
